Test results: patent US20250025438A1, “Derivative of aspartic acid and use thereof in treatment of metabolic diseases such as hepatic fibrosis and non-alcoholic hepatitis” (SHENZHEN JINGTAI TECHNOLOGY CO., LTD., priority 2021, published 2025)
Structures can show the parent of a compound that is named as a salt.

Assays:
[1] = tested on: carbon tetrachloride-induced liver fibrosis; assay: Carbon tetrachloride-induced liver fibrosis model in mice, Masson staining; format: in vivo, C57BL/6 wild-type mice; settings: CCl4 mice
Protocol: Long-term intraperitoneal injection of carbon tetrachloride (CCl4) induced reversible liver fibrosis, which was often used to screen and evaluate anti-hepatic fibrosis drugs. C57BL/6 wild-type mice were randomly divided into control group, carbon tetrachloride group and treatment group. The treatments were as follows:
Mice in the carbon tetrachloride group: The animals were intraperitoneally injected with carbon tetrachloride in a total amount of 0.5 μL/g, diluted with corn oil to 10 μL/g, 3 times/week. After 4 weeks of modeling, the carbon tetrachloride group was randomly divided into groups, plus the negative control group: • (1) Mice in the negative control group: The animals were intraperitoneally injected with corn oil solution, 10 μL/g, 3 times/week; at the same time, 200 μL of drinking water was administered by gavage. • (2) Mice in the carbon tetrachloride group: The animals were intraperitoneally injected with carbon tetrachloride in a total amount of 0.5 μL/g, diluted with corn oil to 10 μL/g, 3 times/week; 200 μL of normal saline was administered by gavage. • (3) Mice in the aspartic acid group: The animals were intraperitoneally injected with carbon tetrachloride in a total amount of 0.5 μL/g, diluted with corn oil to 10 μL/g, 3 times/week; 30 mg/kg aspartic acid was administered by gavage. • (4) Mice in the treatment group: The animals were intraperitoneally injected with carbon tetrachloride in a total amount of 0.5 μL/g, diluted with corn oil to 10 μL/g, 3 times/week; different doses of the compounds of the present invention were administered by gavage.
The animals were treated for 4 weeks, and blood was collected from the eyeballs 48 hours after the last injection of carbon tetrachloride. About 1 mL of whole blood per animal was collected in an anticoagulant tube, and immediately placed on ice and allowed to stand for 1 hour. Centrifugation was performed at 4° C., 3000 rpm for 15 min. About 0.4 mL of the supernatant was taken and added into an EP tube, in which it should be carefully avoided to pipet the lower layer liquid, and then it was stored in a −80° C. refrigerator.
It should be noted to use new paraffin when renewed; • (5 Embedding: Melted paraffin (60° C.) was added into a small iron trough, the paraffin-soaked tissue was taken and placed therein, the embedding box at the side with label was buckled, and the melted paraffin was added again. It should be noted that air bubbles should be removed during the operation process; • (6 The paraffin-embedded tissue was placed on an ice table of an automatic embedding machine. After the paraffin solidified, it was placed in a −20° C. refrigerator for further cooling.
• (1 The wax block with embedded tissue was placed at the corresponding position of a microtome; • (2 The slice thickness was adjusted to the thickness required for the experiment. Generally, 3 to 4 μm should be used for slicing; • (3 6 to 8 Consecutive tissue sections were gently placed and fully stretched in a 55° C. water bath expander; • (4 The continuous tissue sections were gently separated by tweezers; • (5 A wax section that was completely stretched and had no wrinkles in the tissue was selected, and taken out with an adhesive slide so that the section was attached to the slide;
Masson staining is one of the classic and authoritative staining methods for collagen fiber staining. Collagen fibers appear […].

collagen 1 = assay: In-vitro liver fibrosis model in activated LX2 cells (TGFβ1), qPCR: collagen 1; format: cell-based; settings: LX-2 cells activated with TGFβ1 (5 ng/mL), 25 μM compound, 24 hours, real-time PCR
Protocol: This experiment was performed strictly in accordance with the instructions of the Total RNA Kit. The steps were as follows (note: this experiment was performed on ice throughout the entire process, and special RNase-free tips were used throughout the entire process): • 1) The 12-well cell culture plate was taken out from the incubator, the cell culture medium was discarded, the cells were washed twice with 1 mL of 1×PBS, and a negative pressure suction device was used to fully remove PBS; • 2) 350 μL of TRK Lysis Buffer mixture/well was prepared as needed (mixture preparation method: 1 mL of TRKLysis Buffer+20 μL of β-mercaptoethanol), vortexed and mixed well. 350 μL was added to each well of the 12-well cell culture plate, and allowed to stand at room temperature for 5 minutes to fully lyse the cells; • 3) 70% ethanol/well was prepared as needed, vortexed and mixed well. 350 μL was added to each well of the 12-well cell culture plate, mixed well by shaking, and transferred to the spin column (spin column+collection tube were assembled); • 4) Centrifugation was performed at 4° C., 12000 g for 60 sec. […]

[2] = 20 mg/kg/d by gavage, 4 weeks, vs untreated group and aspartic acid group (30 mg/kg/d), FIG. 6

COC(=O)C[C@H](N)C(=O)O [Compound 6]
collagen deposition in the mouse liver tissue (Masson) ([1]; 10 mg/kg/bid, 50 mg/kg/bid, 150 mg/kg/bid, vs untreated group, FIG. 7): decreased
collagen deposition in the mouse liver tissue (Masson) ([1]; 25 mg/kg/d by gavage, 4 weeks, vs untreated group and aspartic acid group (30 mg/kg/d), FIG. 6): reduced
collagen 1 gene expression inhibition rate (collagen 1): B (B represented that the inhibition rate was 10% to 25%)

COC(=O)[C@@H](N)CC(=O)O [Compound 4]
collagen deposition in the mouse liver tissue (Masson) [1, 2]: reduced
collagen 1 gene expression inhibition rate (collagen 1): A (A represented that the inhibition rate was 25% or above)

N[C@@H](CCC(=O)O)C(=O)O [Compound 47]
collagen deposition in the mouse liver tissue (Masson) [1, 2]: reduced

COC(=O)C[C@H](N)C(=O)OCOC(=O)[C@@H](N)CC(=O)OC [Compound 54, 4-dimethyl O′1,01-methylene (2S,2'S)-bis (2-aminosuccinate) hydrochloride]
collagen deposition in the mouse liver tissue (Masson) ([1]; 40 mg/kg/d by gavage, 4 weeks, vs untreated group and aspartic acid group (30 mg/kg/d), FIG. 6): reduced
